Results taken from US20260217697A1, “COMPOUNDS COMPRISING HETEROARYL RINGS AND COMPOSITIONS AND METHODS THEREOF” (lonGen Therapeutics Co., Ltd., priority 2022, published 2026).
pIC50: −log10 of the molar value.

Molecular target: T1, hTRPV3 (Homo sapiens, UniProt Q8NET8)
T1 construct: The commercially available plasmid with the full-length cDNA of hTRPV3 (791 aa) (NM_001258205.2); host or cells: HEK293T
T1 sequence (Q8NET8 1-791 isoform Q8NET8-2): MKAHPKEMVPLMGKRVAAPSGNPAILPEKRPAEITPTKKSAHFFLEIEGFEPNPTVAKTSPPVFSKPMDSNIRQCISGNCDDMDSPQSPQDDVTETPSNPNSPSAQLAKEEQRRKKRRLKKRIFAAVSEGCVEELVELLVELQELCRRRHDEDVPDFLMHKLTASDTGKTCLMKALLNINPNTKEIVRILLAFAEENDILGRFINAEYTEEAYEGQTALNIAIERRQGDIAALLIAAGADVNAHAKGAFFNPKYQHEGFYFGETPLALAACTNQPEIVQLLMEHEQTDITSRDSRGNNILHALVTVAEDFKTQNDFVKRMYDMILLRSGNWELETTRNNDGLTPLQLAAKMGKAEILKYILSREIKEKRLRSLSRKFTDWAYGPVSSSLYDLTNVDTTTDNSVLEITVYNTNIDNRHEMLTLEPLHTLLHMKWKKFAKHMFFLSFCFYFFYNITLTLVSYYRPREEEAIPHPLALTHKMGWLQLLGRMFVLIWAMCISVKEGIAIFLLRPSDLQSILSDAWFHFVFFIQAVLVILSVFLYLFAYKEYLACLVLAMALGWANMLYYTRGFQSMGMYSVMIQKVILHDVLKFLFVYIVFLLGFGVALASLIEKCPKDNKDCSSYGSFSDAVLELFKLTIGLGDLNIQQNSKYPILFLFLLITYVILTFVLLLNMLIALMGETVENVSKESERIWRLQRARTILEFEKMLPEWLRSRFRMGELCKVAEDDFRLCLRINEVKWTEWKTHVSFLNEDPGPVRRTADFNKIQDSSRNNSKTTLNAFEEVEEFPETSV
Assay: Whole-cell patch-clamp recording of hTRPV3 current in transfected HEK293T cells (2-APB induced)
Type: cell-based
Conditions: current induced by 300 μM 2-APB, compounds tested up to 10 μM, room temperature
Description: Various technologies can be utilized to assess TRPV3 activation in accordance with the present disclosure. For example, in some embodiments, compounds are assessed in in vitro patch clamp experiments. Certain useful procedures are described herein as examples.
In some embodiments, whole-cell patch-clamp recordings were used to detect the current through hTRPV3 channels in the HEK293T cell line transfected with hTRPV3 cDNA and evaluate the exact blocking effect of compounds on hTRPV3. In some embodiments, a perfusion system was adopted to control the extracellular solution, including the addition of the agonist and different antagonists.
HEK293T cells were cultured in a Dulbecco's modified Eagle's medium containing 10% fetal bovine serum (Thermo Scientific) and 1% penicillin/streptomycin (Thermo Scientific) at 37° C. with 5% CO2. The commercially available plasmid with the full-length cDNA of hTRPV3 (791 aa) (NM_001258205.2) was purchased from OriGene Technologies. The transfection of hTRPV3 plasmids was conducted using Lipofectamine™ 3000 following the manufacturer's instructions (Invitrogen).
Whole-cell patch-clamp experiments were performed 18 h post-transfection, using a MultiClamp 700B amplifier driven by pClamp 11 software (Molecular Devices). In order to achieve good single-cell physical separation, HEK293T cells with hTRPV3 expression were digested and then re-plated at low density on glass coverslips. Electrodes were pulled from borosilicate glass with a P-97 micropipette puller (Sutter Instruments) and those with resistances of 3-5 MΩ are used for experiments. In some embodiments, an Ag—AgCl wire was used as a reference electrode and signals are filtered using a 2.9 kHz low-pass Bessel filter. Membrane potential was held at 0 mV. For recording of agonist-induced activation and inhibition by different test compounds, currents were elicited by a protocol consisting of a 400-ms step to +80 mV, followed by a 400-ms step to −80 mV at 2-s intervals. both pipette and bath solutions contained 130 mM NaCl, 0.3 mM EDTA, and 3 mM HEPES (buffered to pH 7.4 with NaOH). All recordings were made at room temperature.
All patch-clamp recordings were analyzed using the Clampfit software and GraphPad Prism 6.0 software. Specifically, data are analyzed by calculating the degree of current amplitude after the test compound addition compared with the unblocked agonist-induced current amplitude. The resulting blocking percentage at each concentration was used to make a concentration-response analysis and fitted to the Hill equation: blocking percentage=minimum blocking percentage+ (maximum blocking percentage-minimum blocking percentage)/(1+10^(Hill slope* […])). The minimum blocking percentage is 0% and maximum blocking percentage is 100%, while the Hill slope and the IC50 were determined as the curve fitting routine. Compounds of interest were tested against hTRPV3 at concentrations up to 10 μM, and certain data was used to estimate IC50 as described herein.

Row | SMILES | pIC50
1 | COc1ncnc(OC)c1C(=O)Nc1nc2c(s1)COc1cc(C(F)(F)F)ccc1-2 [compound 1, 4,6-dimethoxy-N-(7-(trifluoromethyl)-4H-chromeno[4,3-d]thiazol-2-yl)pyrimidine-5-carboxamide] | 6.00 to 7.00
2 | COc1ncnc(OC)c1C(=O)Nc1nc2c(s1)CCc1ccccc1-2 [compound 2, N-(4,5-dihydronaphtho[1,2-d]thiazol-2-yl)-4,6-dimethoxypyrimidine-5-carboxamide] | ≤ 5.00
3 | COc1ncnc(OC)c1C(=O)Nc1nc2c(s1)CCc1ccc(Cl)cc1-2 [compound 3, N-(8-chloro-4,5-dihydronaphtho[1,2-d]thiazol-2-yl)-4,6-dimethoxypyrimidine-5-carboxamide] | 5.00 to 6.00
4 | COc1ncnc(OC)c1C(=O)Nc1nc2c(s1)CCCc1ccccc1-2 [compound 4, N-(5,6-dihydro-4H-benzo[6,7]cyclohepta[1,2-d]thiazol-2-yl)-4,6-dimethoxypyrimidine-5-carboxamide] | ≤ 5.00
5 | COc1ncnc(OC)c1C(=O)Nc1nc2c(s1)CSc1ccc(Cl)cc1-2 [compound 5, N-(8-chloro-4H-thiochromeno[4,3-d]thiazol-2-yl)-4,6-dimethoxypyrimidine-5-carboxamide] | ≤ 5.00
6 | COc1ncnc(OC)c1C(=O)Nc1nc2c(s1)COc1cc(Br)ccc1-2 [compound 6, N-(7-bromo-4H-chromeno[4,3-d]thiazol-2-yl)-4,6-dimethoxypyrimidine-5-carboxamide] | ≤ 5.00
7 | COc1ncnc(OC)c1C(=O)Nc1nc2c(s1)Cc1ccc(Cl)cc1-2 [compound 7, N-(5-chloro-8H-indeno[1,2-d]thiazol-2-yl)-4,6-dimethoxypyrimidine-5-carboxamide] | 5.00 to 6.00
8 | COc1ncnc(OC)c1C(=O)Nc1nc2c(s1)C(C)(C)Oc1cc(C(F)(F)F)ccc1-2 [compound 8, N-(4,4-dimethyl-7-(trifluoromethyl)-4H-chromeno[4,3-d]thiazol-2-yl)-4,6-dimethoxypyrimidine-5-carboxamide] | 6.00 to 7.00
9 | COc1ncnc(OC)c1C(=O)Nc1nc2c(s1)c(=O)oc1cc(C(F)(F)F)ccc12 [compound 9, 4,6-dimethoxy-N-(4-oxo-7-(trifluoromethyl)-4H-chromeno[4,3-d]thiazol-2-yl)pyrimidine-5-carboxamide] | ≤ 5.00
10 | COc1ncnc(OC)c1C(=O)Nc1nc2c(s1)COc1cc(F)ccc1-2 [compound 10, N-(7-fluoro-4H-chromeno[4,3-d]thiazol-2-yl)-4,6-dimethoxypyrimidine-5-carboxamide] | ≤ 5.00
11 | COc1ccc2c(c1)OCc1sc(NC(=O)c3c(OC)ncnc3OC)nc1-2 [compound 11, 4,6-dimethoxy-N-(7-methoxy-4H-chromeno[4,3-d]thiazol-2-yl)pyrimidine-5-carboxamide] | ≤ 5.00
12 | COc1ncnc(OC)c1C(=O)Nc1nc2c(s1)C1(CCCN(C(=O)OC(C)(C)C)C1)Oc1cc(C(F)(F)F)ccc1-2 (stereo not shown) [compound 12, tert-butyl 2-(4,6-dimethoxypyrimidine-5-carboxamido)-7-(trifluoromethyl)spiro[chromeno[4,3-d]thiazole-4,3′-piperidine]-1′-carboxylate] | 6.00 to 7.00
13 | COc1ncnc(OC)c1C(=O)Nc1nc2c(s1)C1(CCCCC1)Oc1cc(C(F)(F)F)ccc1-2 [compound 13, 4,6-dimethoxy-N-(7-(trifluoromethyl)spiro[chromeno[4,3-d]thiazole-4,1′-cyclohexan]-2-yl)pyrimidine-5-carboxamide] | > 7.00
14 | COc1ncnc(OC)c1C(=O)Nc1nc2c(s1)COc1cc(OC(=O)C(C)(C)C)ccc1-2 [compound 14, 2-(4,6-dimethoxypyrimidine-5-carboxamido)-4H-chromeno[4,3-d]thiazol-7-yl pivalate] | 5.00 to 6.00
15 | COc1ncnc(OC)c1C(=O)Nc1nc2c(s1)COc1c-2cccc1C(F)(F)F [compound 15, 4,6-dimethoxy-N-(6-(trifluoromethyl)-4H-chromeno[4,3-d]thiazol-2-yl)pyrimidine-5-carboxamide] | ≤ 5.00
16 | COc1ncnc(OC)c1C(=O)Nc1nc2c(s1)COc1ccc(C)cc1-2 [compound 16, 4,6-dimethoxy-N-(8-methyl-4H-chromeno[4,3-d]thiazol-2-yl)pyrimidine-5-carboxamide] | ≤ 5.00
17 | COc1ccc2c(c1)-c1nc(NC(=O)c3c(OC)ncnc3OC)sc1CO2 [compound 17, 4,6-dimethoxy-N-(8-methoxy-4H-chromeno[4,3-d]thiazol-2-yl)pyrimidine-5-carboxamide] | ≤ 5.00
18 | COc1ncnc(OC)c1C(=O)Nc1nc2c(s1)C1(CCC(C(C)(C)C)CC1)Oc1cc(C(F)(F)F)ccc1-2 (stereo not shown) [compound 18, N-(4′-(tert-butyl)-7-(trifluoromethyl)spiro[chromeno[4,3-d]thiazole-4,1′-cyclohexan]-2-yl)-4,6-dimethoxypyrimidine-5-carboxamide] | 5.00 to 6.00
19 | COc1ncnc(OC)c1C(=O)NC1=NC2c3ccc(C(F)(F)F)cc3OC3(CCC3)C2S1 (stereo not shown) [compound 19, 4,6-dimethoxy-N-(7-(trifluoromethyl)-3a,9b-dihydrospiro[chromeno[4,3-d]thiazole-4,1′-cyclobutan]-2-yl)pyrimidine-5-carboxamide] | 6.00 to 7.00
20 | COc1ncnc(OC)c1C(=O)Nc1nc2c(s1)C1(Oc3cc(C(F)(F)F)ccc3-2)C2CC3CC(C2)CC1C3 (stereo not shown) [compound 20, 4,6-dimethoxy-N-(7′-(trifluoromethyl)spiro[adamantane-2,4′-chromeno[4,3-d]thiazol]-2′-yl)pyrimidine-5-carboxamide] | 6.00 to 7.00
21 | COc1ncnc(OC)c1C(=O)Nc1nc2c(s1)C1(CCOC1)Oc1cc(C(F)(F)F)ccc1-2 (stereo not shown) [compound 21, 4,6-dimethoxy-N-(7-(trifluoromethyl)-4′,5′-dihydro-2′H-spiro[chromeno[4,3-d]thiazole-4,3′-furan]-2-yl)pyrimidine-5-carboxamide] | 6.00 to 7.00
22 | COc1ncnc(OC)c1C(=O)Nc1nc2c(s1)CCc1cc(C(F)(F)F)ccc1-2 [compound 22, 4,6-dimethoxy-N-(7-(trifluoromethyl)-4,5-dihydronaphtho[1,2-d]thiazol-2-yl)pyrimidine-5-carboxamide] | ≤ 5.00
23 | COc1ncnc(OC)c1C(=O)Nc1nc2c(s1)C1(CCCC1)Oc1cc(C(F)(F)F)ccc1-2 [compound 23, 4,6-dimethoxy-N-(7-(trifluoromethyl)spiro[chromeno[4,3-d]thiazole-4,1′-cyclopentan]-2-yl)pyrimidine-5-carboxamide] | 6.00 to 7.00
24 | CCC1(CC)Oc2cc(C(F)(F)F)ccc2-c2nc(NC(=O)c3c(OC)ncnc3OC)sc21 [compound 24, N-(4,4-diethyl-7-(trifluoromethyl)-4H-chromeno[4,3-d]thiazol-2-yl)-4,6-dimethoxypyrimidine-5-carboxamide] | > 7.00
25 | COc1ncnc(OC)c1C(=O)Nc1nc2c(s1)C(C)(c1ccccc1)Oc1cc(C(F)(F)F)ccc1-2 (stereo not shown) [compound 25, 4,6-dimethoxy-N-(4-methyl-4-phenyl-7-(trifluoromethyl)-4H-chromeno[4,3-d]thiazol-2-yl)pyrimidine-5-carboxamide] | > 7.00
